Assay results published in the NIST ThermoML archive (doi:10.1021/je900210h).

Details: Fluid (supercritical or subcritical phases), Coaxial cylinder method

FCC(F)(F)F [1,1,1,2-tetrafluoroethane]
Details	thermal conductivity [W/m/K]
377.87 K, 4339 kPa	0.0617
377.87 K, 4470 kPa	0.0614
377.87 K, 4479 kPa	0.0606
377.89 K, 4330 kPa	0.0583
377.89 K, 4518 kPa	0.0587
377.89 K, 4531 kPa	0.0582
377.9 K, 4541 kPa	0.0575
377.9 K, 4551 kPa	0.057
377.9 K, 4561 kPa	0.0566
377.9 K, 4582 kPa	0.0563
377.91 K, 4321 kPa	0.0557
377.93 K, 4309 kPa	0.0521
377.93 K, 4800 kPa	0.0547
377.93 K, 4851 kPa	0.0547
377.95 K, 4301 kPa	0.0503
377.96 K, 6000 kPa	0.0569
377.97 K, 4302 kPa	0.0487
378.02 K, 4500 kPa	0.0601
378.05 K, 7003 kPa	0.0589
378.07 K, 180 kPa	0.02003
378.07 K, 6502 kPa	0.058
378.11 K, 5504 kPa	0.056
378.16 K, 8004 kPa	0.0605
378.18 K, 7450 kPa	0.0597
378.24 K, 10507 kPa	0.064
378.25 K, 4395 kPa	0.0667
378.25 K, 4400 kPa	0.0667
378.25 K, 9919 kPa	0.0632
378.25 K, 21005 kPa	0.0736
378.26 K, 4380 kPa	0.0657
378.26 K, 4390 kPa	0.0664
378.26 K, 4410 kPa	0.0667
378.26 K, 4420 kPa	0.0661
378.26 K, 4430 kPa	0.0655
378.26 K, 9506 kPa	0.0627
378.27 K, 4370 kPa	0.0645
378.27 K, 4440 kPa	0.0645
378.27 K, 4450 kPa	0.0639
378.27 K, 4460 kPa	0.0633
378.27 K, 9008 kPa	0.062
378.27 K, 18500 kPa	0.0716
378.28 K, 4360 kPa	0.0622
378.28 K, 4470 kPa	0.0625
378.28 K, 4480 kPa	0.0616
378.29 K, 4350 kPa	0.0597
378.29 K, 4490 kPa	0.0611
378.29 K, 4500 kPa	0.0608
378.29 K, 4510 kPa	0.0603
378.29 K, 4520 kPa	0.0601
378.29 K, 4530 kPa	0.0598
378.29 K, 8408 kPa	0.0612
378.29 K, 16500 kPa	0.0701
378.3 K, 4540 kPa	0.0595
378.3 K, 4550 kPa	0.0593
378.3 K, 4570 kPa	0.0588
378.3 K, 4590 kPa	0.0585
378.31 K, 4340 kPa	0.057
378.31 K, 4620 kPa	0.0581
378.31 K, 4626 kPa	0.0578
378.31 K, 4650 kPa	0.0573
378.31 K, 4688 kPa	0.0571
378.31 K, 4730 kPa	0.0569
378.31 K, 14505 kPa	0.0683
378.32 K, 4770 kPa	0.0567
378.33 K, 4330 kPa	0.0547
378.33 K, 13441 kPa	0.0674
378.34 K, 12420 kPa	0.0663
378.35 K, 4320 kPa	0.0524
378.36 K, 4310 kPa	0.0506
378.36 K, 11376 kPa	0.065
378.37 K, 10981 kPa	0.0646
378.38 K, 4300 kPa	0.0488
378.4 K, 4290 kPa	0.0472
378.41 K, 4280 kPa	0.0461
378.43 K, 4260 kPa	0.0438
378.45 K, 4240 kPa	0.0422
378.47 K, 4220 kPa	0.0408
378.49 K, 4200 kPa	0.0395
378.5 K, 4180 kPa	0.0385
378.53 K, 4140 kPa	0.0368
378.53 K, 4150 kPa	0.0371
378.54 K, 4130 kPa	0.0364
378.59 K, 4860 kPa	0.0565
378.59 K, 4900 kPa	0.0565
378.63 K, 440 kPa	0.02017
378.74 K, 180 kPa	0.02012
378.81 K, 4120 kPa	0.036
378.83 K, 4090 kPa	0.0351
378.85 K, 4050 kPa	0.0339
378.9 K, 330 kPa	0.02026
378.9 K, 3950 kPa	0.0317
